# Results as given in patent US8999970B2, “Administration of an anti-obesity compound to individuals with renal impairment” (Arena Pharmaceuticals, Inc., priority 2010, dated 2015).
# Tests used:
# [1] = Clinical trial APD356-016: plasma and urine pharmacokinetics of lorcaserin, M1 and M5 after a 10 mg dose in subjects with renal impairment; details: for tmax: median; for Ae0-120 / fe0-120: urine
# How it was run: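 Single 10 mg lorcaserin dose in subjects grouped by renal function; plasma and urine sampled for lorcaserin, M1 and M5. Groups set by creatinine clearance from ideal body weight, with actual-weight regrouping also summarised; the dialysis subject counted as end-stage renal disease.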
# [2] = system: panel of receptors, ion channels and transporters; assay: Pharmacological activity of metabolites at a panel of receptors, ion channels and transporters
# [3] = Preclinical toxicology: M1 and M5 pharmacokinetics after oral administration of lorcaserin, 52 wk, rats
# [4] = 10 mg dose, Mild, actual BW groups
# [5] = 10 mg dose, Mild, ideal BW groups
# [6] = 10 mg dose, Moderate, actual BW groups
# [7] = 10 mg dose, Moderate, ideal BW groups
# [8] = 10 mg dose, Normal, actual BW groups
# [9] = 10 mg dose, Normal, ideal BW groups
# [10] = 10 mg dose, Severe N = 1, actual BW groups
# [11] = 10 mg dose, Severe, ideal BW groups
# [12] = ESRD, 10 mg QD Authentic, Day 1
# [13] = Mild, 10 mg QD Authentic, Day 1
# [14] = Moderate, 10 mg QD Authentic, Day 1
# [15] = Normal, 10 mg QD Authentic, Day 1
# [16] = Severe, 10 mg QD Authentic, Day 1
# [17] = lorcaserin 10 mg/kg/day oral, F
# [18] = lorcaserin 10 mg/kg/day oral, M
# [19] = lorcaserin 30 mg/kg/day oral, F
# [20] = lorcaserin 30 mg/kg/day oral, M
# [21] = lorcaserin 100 mg/kg/day oral, F
# [22] = lorcaserin 100 mg/kg/day oral, M
smiles,measurement,setting,value
"C[C@H]1CN(C(=O)O[C@@H]2O[C@H](C(=O)O)[C@@H](O)[C@H](O)[C@H]2O)CCc2ccc(Cl)cc21 [Compound M5, N-carbamoyl glucuronide of lorcaserin]",% AUC Extrapolated,"[1]; 10 mg dose, ESRD (Period 1)",14.7%
same,AUC0-inf,"[1]; 10 mg dose, ESRD (Period 1)",11200 ng·h/mL
same,AUC(0-t),"[1]; 10 mg dose, ESRD (Period 1)",9530 ng·h/mL
same,AUClast,"[1]; 10 mg dose, ESRD (Period 1)",9530 ng·h/mL
same,Cmax,"[1]; 10 mg dose, ESRD (Period 1)",300 ng/mL
same,MRTinf,"[1]; 10 mg dose, ESRD (Period 1)",38.6 h
same,t1/2z,"[1]; 10 mg dose, ESRD (Period 1)",25.7 h
same,tmax,"[1]; 10 mg dose, ESRD (Period 1)",3.00 h
same,% AUC Extrapolated,"[1]; 10 mg dose, ESRD (Period 2)",26.9%
same,AUC0-inf,"[1]; 10 mg dose, ESRD (Period 2)",11900 ng·h/mL
same,AUC(0-t),"[1]; 10 mg dose, ESRD (Period 2)",8240 ng·h/mL
same,AUClast,"[1]; 10 mg dose, ESRD (Period 2)",8240 ng·h/mL
same,Cmax,"[1]; 10 mg dose, ESRD (Period 2)",231 ng/mL
same,MRTinf,"[1]; 10 mg dose, ESRD (Period 2)",59.1 h
same,t1/2z,"[1]; 10 mg dose, ESRD (Period 2)",40.5 h
same,tmax,"[1]; 10 mg dose, ESRD (Period 2)",3.10 h
same,% AUC0-inf Extrapolated,[1]; [4],14.5%
same,AUC0-inf,[1]; [4],1040 ng·h/mL
same,AUClast,[1]; [4],914 ng·h/mL
same,Cmax,[1]; [4],91.9 ng/mL
same,MRTinf,[1]; [4],16.6 h
same,T1/2z,[1]; [4],13.5 h
same,tmax,[1]; [4],2 h
same,% AUC0-inf Extrapolated,[1]; [5],17.7%
same,AUC0-inf,[1]; [5],583 ng·h/mL
same,AUC(0-t),[1]; [5],482 ng·h/mL
same,Cmax,[1]; [5],62.4 ng/mL
same,MRTinf,[1]; [5],13.5 h
same,T1/2z,[1]; [5],10.7 h
same,tmax,[1]; [5],2.00 h
same,% AUC0-inf Extrapolated,[1]; [6],12.1%
same,AUC0-inf,[1]; [6],1700 ng·h/mL
same,AUClast,[1]; [6],1510 ng·h/mL
same,Cmax,[1]; [6],134 ng/mL
same,MRTinf,[1]; [6],18.5 h
same,T1/2z,[1]; [6],14.4 h
same,tmax,[1]; [6],2 h
same,% AUC0-inf Extrapolated,[1]; [7],15.6%
same,AUC0-inf,[1]; [7],1100 ng·h/mL
same,AUC(0-t),[1]; [7],944 ng·h/mL
same,Cmax,[1]; [7],96.4 ng/mL
same,MRTinf,[1]; [7],18.5 h
same,T1/2z,[1]; [7],15.4 h
same,tmax,[1]; [7],2.00 h
same,% AUC0-inf Extrapolated,[1]; [8],23.1%
same,AUC0-inf,[1]; [8],498 ng·h/mL
same,AUClast,[1]; [8],381 ng·h/mL
same,Cmax,[1]; [8],66.2 ng/mL
same,MRTinf,[1]; [8],14.2 h
same,T1/2z,[1]; [8],11.7 h
same,tmax,[1]; [8],2 h
same,% AUC0-inf Extrapolated,[1]; [9],26.3%
same,AUC0-inf,[1]; [9],475 ng·h/mL
same,AUC(0-t),[1]; [9],345 ng·h/mL
same,Cmax,[1]; [9],70.5 ng/mL
same,MRTinf,[1]; [9],14.6 h
same,T1/2z,[1]; [9],12.2 h
same,tmax,[1]; [9],1.00 h
same,% AUC0-inf Extrapolated,[1]; [10],2.59%
same,AUC0-inf,[1]; [10],6480 ng·h/mL
same,AUClast,[1]; [10],6310 ng·h/mL
same,Cmax,[1]; [10],214 ng/mL
same,MRTinf,[1]; [10],33.4 h
same,T1/2z,[1]; [10],23.1 h
same,tmax,[1]; [10],4 h
same,% AUC0-inf Extrapolated,[1]; [11],8.46%
same,AUC0-inf,[1]; [11],2470 ng·h/mL
same,AUC(0-t),[1]; [11],2290 ng·h/mL
same,Cmax,[1]; [11],153 ng/mL
same,MRTinf,[1]; [11],20.0 h
same,T1/2z,[1]; [11],14.9 h
same,tmax,[1]; [11],2.50 h
same,Ae0-120,[1]; [4],7470 µg
same,fe0-120,[1]; [4],0.417
same,Ae0-120,[1]; [5],7160 µg
same,fe0-120,[1]; [5],0.399
same,Ae0-120,[1]; [6],6480 µg
same,fe0-120,[1]; [6],0.361
same,Ae0-120,[1]; [7],8000 µg
same,fe0-120,[1]; [7],0.446
same,Ae0-120,[1]; [8],8210 µg
same,fe0-120,[1]; [8],0.458
same,Ae0-120,[1]; [9],8540 µg
same,fe0-120,[1]; [9],0.476
same,Ae0-120,[1]; [10],6720 µg
same,fe0-120,[1]; [10],0.375
same,Ae0-120,[1]; [11],6300 µg
same,fe0-120,[1]; [11],0.351
same,Amount in the body cleared during a standard 4-hour hemodialysis procedure,[1]; ESRD,Approximately 18%
same,Hemodialysis extraction ratio,[1]; ESRD,18.4%
same,Removal by hemodialysis,[1]; ESRD,partially removed
same,AUC24 hr,[1]; [12],9530 ng·h/mL
same,Cmax,[1]; [12],300 ng/mL
same,t1/2,[1]; [12],25.7 h
same,AUC24 hr,[1]; [13],482 ng·h/mL
same,Cmax,[1]; [13],62.4 ng/mL
same,t1/2,[1]; [13],10.7 h
same,AUC24 hr,[1]; [14],944 ng·h/mL
same,Cmax,[1]; [14],96.4 ng/mL
same,t1/2,[1]; [14],15.4 h
same,AUC24 hr,[1]; [15],345 ng·h/mL
same,Cmax,[1]; [15],70.5 ng/mL
same,t1/2,[1]; [15],12.2 h
same,AUC24 hr,[1]; [16],2290 ng·h/mL
same,Cmax,[1]; [16],153 ng/mL
same,t1/2,[1]; [16],14.9 h
same,Exposure (Geometric Mean Ratio for AUCinf) increase compared to normal subjects,[1]; mild (CLcr=51-80 mL/min),1.2 fold
same,Terminal half-life prolonged by,[1]; mild renal impairment,0%
same,Exposure (Geometric Mean Ratio for AUCinf) increase compared to normal subjects,[1]; moderate (CLcr=31-50 mL/min),2.3 fold
same,Terminal half-life prolonged by,[1]; moderate renal impairment,26%
same,Fractional excretion,[1]; normal renal function,48%
same,Exposure (Geometric Mean Ratio for AUCinf) increase compared to normal subjects,[1]; severe (CLcr=5-30 mL/min),5.2 fold
same,Fractional excretion,[1]; severe renal impairment,35%
same,Terminal half-life prolonged by,[1]; severe renal impairment,22%
same,Highest individual AUC0-inf in a subject not on hemodialysis,"[1]; subject 3140-010, creatinine clearance 9.9 mL/min",6480 ng·h/mL
same,Highest observed Cmax in the clinical study,[1]; subject with ESRD (#3140-505),520 ng/mL
same,Highest AUC0-inf overall,[1]; subject with ESRD on hemodialysis,20800 ng·h/mL
same,"Activity at serotonin receptors or at a panel of more than 60 GPCRs, transporters and ion channels",[2],neither metabolite is active
same,"Pharmacological activity at all receptors, transporters and ion channels tested to date",[2],pharmacologically inactive
same,AUC0-inf,[3]; [17],349 ng·h/mL
same,AUClast,[3]; [17],273 ng·h/mL
same,Cmax,[3]; [17],53.8 ng/mL
same,tmax,[3]; [17],0.5 h
same,AUC0-inf,[3]; [18],602 ng·h/mL
same,AUClast,[3]; [18],550 ng·h/mL
same,Cmax,[3]; [18],178 ng/mL
same,tmax,[3]; [18],1.0 h
same,AUC0-inf,[3]; [19],1960 ng·h/mL
same,AUClast,[3]; [19],1620 ng·h/mL
same,Cmax,[3]; [19],337 ng/mL
same,tmax,[3]; [19],1.0 h
same,AUC0-inf,[3]; [20],3100 ng·h/mL
same,AUClast,[3]; [20],3070 ng·h/mL
same,Cmax,[3]; [20],559 ng/mL
same,tmax,[3]; [20],0.5 h
same,AUC0-inf,[3]; [21],12800 ng·h/mL
same,AUClast,[3]; [21],11100 ng·h/mL
same,Cmax,[3]; [21],1200 ng/mL
same,tmax,[3]; [21],2.0 h
same,AUC0-inf,[3]; [22],16500 ng·h/mL
same,AUClast,[3]; [22],14900 ng·h/mL
same,Cmax,[3]; [22],2030 ng/mL
same,tmax,[3]; [22],0.5 h
